Structures are written as SMILES. Values after ≈ are worked out from the molar mass of the structure shown.

A word on the IC50: it is the concentration needed to halve the response being measured.

The subject of one experiment is HepG2. Nature of the experiment: Cytotoxicity against human HepG2 cells after 3 days. Type of experiment: functional, cell-based. The following applies: HepG2, 72 h.
A short description of experiment [1]: Cytotoxicity against human HepG2(2.2.15) cells after 3 days. Type of experiment: functional, cell-based. The following applies: HepG2 2.2.15, 72 h.

`CCCCCC(O)C(O)CCCCCC[C@@H](O)[C@H]1CC[C@H](CCCCCCCCCC[C@@H](O)CC2=C[C@H](C)OC2=O)O1` (stereo partly drawn) [MURICIN A]: the IC50 came to 5.04 µg/mL (≈ 8.44 µM) with HepG2 and 0.00513 µg/mL (≈ 0.00859 µM) in experiment [1].

Consider `CCCCCCCCCCCC[C@@H](O)[C@H]1CC[C@@H]([C@@H](O)CCCCC(=O)CCCCCCCC2=C[C@H](C)OC2=O)O1` [COROSSOLONE], for which the IC50 amounted to 0.165 µg/mL (≈ 0.285 µM) with HepG2 and 0.0476 µg/mL (≈ 0.0822 µM) in experiment [1].

On to `CCCCCCC[C@H](O)[C@@H](O)CCCC[C@@H](O)[C@H]1CC[C@H](CCCCCCCCCCCCC2=C[C@H](C)OC2=O)O1` [MURICIN H], for which the IC50 with HepG2 turned out to be 0.0951 µg/mL (≈ 0.164 µM); in experiment [1], 0.0118 µg/mL (≈ 0.0203 µM).

On to `CCC[C@H](O)[C@@H](O)CCCCCCCC[C@@H](O)[C@H]1CC[C@H](CCCCCCCCCC[C@@H](O)CC2=C[C@H](C)OC2=O)O1` [ANNOCATALIN], for which the IC50 was determined as 5.7 µg/mL (≈ 9.55 µM) in the experiment on HepG2 and 0.00348 µg/mL (≈ 0.00583 µM) in experiment [1].

Regarding `CCCCCC(O)C(O)CCCCCC[C@H](O)[C@@H]1CC[C@H](CCCCCCCCCC[C@H](O)CC2=C[C@H](C)OC2=O)O1` (stereo partly drawn) [MURICIN B], the IC50 with HepG2 is 1.78 µg/mL (≈ 2.98 µM); in experiment [1], 0.00429 µg/mL (≈ 0.00719 µM).

As for `COc1cccc2c1C(=O)c1c(O)c3c(c(O)c1C2=O)C[C@@](O)(C(=O)CO)C[C@@H]3O[C@H]1C[C@H](N)[C@H](O)[C@H](C)O1` [DOXORUBICIN], the IC50 stood at 0.241 µg/mL (≈ 0.443 µM) with HepG2 and 0.45 µg/mL (≈ 0.828 µM) in experiment [1].

As to `CCCCC/C=C\CC[C@H](O)[C@@H](O)CCCC[C@@H](O)[C@H]1CC[C@H](CCCCCCCCCCCCC2=C[C@H](C)OC2=O)O1` [MURICIN I], the IC50 with HepG2 turned out to be 0.0509 µg/mL (≈ 0.0839 µM); in experiment [1], 0.222 µg/mL (≈ 0.366 µM).

On to `CCCCCCCC(O)C(O)CC[C@H](O)[C@@H]1CC[C@H](CCCCCCCCCCCC[C@@H](O)CC2=C[C@H](C)OC2=O)O1` (stereo partly drawn) [MURICIN C], for which the results for the IC50 (with HepG2; in experiment [1]) were 0.499 µg/mL (≈ 0.836 µM) and 0.00387 µg/mL (≈ 0.00648 µM), respectively.

Consider `CCCCCCCCCCCC[C@@H](O)[C@H]1CC[C@@H]([C@@H](O)CCCCCCC(O)CCCCC[C@@H](O)CC2=C[C@H](C)OC2=O)O1` (stereo partly drawn), for which the IC50 stood at 0.298 µg/mL (≈ 0.477 µM) with HepG2 and 0.0162 µg/mL (≈ 0.0259 µM) in experiment [1].
